Among the test systems are ACHN; CAKI-1; HOP-62; HT-29; Hs-578T; K562; M14; MCF7; OVCAR-3; OVCAR-4; OVCAR-5; OVCAR-8; SF-268; SF-295; SN12C; UACC-257; UO-31; SF-539; SNB-75.
What all share (assay): NCI tumour cell line growth inhibition, 48 h

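1) Cells in 96-well plates. 2) Compound, 48 h, 5 concentrations. 3) Linear interpolation between surrounding doses. 4) Unreached endpoint = highest concentration. GI50 is the concentration that inhibits growth by half.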 Active and inactive are the calls of the source. No stated cut-off is given here; in the data, active = GI50 up to about 1.1 µM and inactive = higher. Where only a bound is given, the exact number is not on record here.

As to `S=C(Nc1ccc2c(c1)Cc1ccccc1-2)Nc1ccc2c(c1)Cc1ccccc1-2`, the GI50 is > 100 µM (inactive) in the test with ACHN; > 100 µM (inactive) in the test with CAKI-1; > 100 µM (inactive) in the test with HOP-62; > 100 µM (inactive) in the test with HT-29; > 100 µM (inactive) in the test on Hs-578T; 19.1 µM (inactive) with K562. The GI50 in the test with M14, in the test on MCF7, in the test with OVCAR-3, in the test on OVCAR-4, with OVCAR-5 and in the test on OVCAR-8 was > 100 µM (inactive) throughout. The GI50 in the test with SF-268, in the test with SF-295, in the test on SN12C, in the test with UACC-257 and in the test on UO-31 was > 100 µM (inactive) in each case.
Consider `CCCCNC(=S)Nc1nc(C(=O)NNC(=S)NCC)cs1`, for which the GI50 in the test with ACHN was 31.6 µM (inactive); with CAKI-1, 63.5 µM (inactive); in the test with HOP-62, > 100 µM (inactive); with HT-29, 53.8 µM (inactive); with M14, > 100 µM (inactive); with MCF7, > 100 µM (inactive). Moreover, the GI50 in the test with OVCAR-3 was 44 µM (inactive); in the test on OVCAR-4 it was 73.1 µM (inactive); with OVCAR-5, > 100 µM (inactive); in the test on OVCAR-8 it was > 100 µM (inactive); with SF-268, > 100 µM (inactive); with SF-295, > 100 µM (inactive). Further, the GI50 in the test with SF-539 was 73.5 µM (inactive); in the test with SN12C, 56.8 µM (inactive); in the test on SNB-75, > 100 µM (inactive); in the test with UACC-257 it was > 100 µM (inactive); in the test with UO-31, 31.6 µM (inactive).
As for `Cc1ccc(S(=O)(=O)N2CC2CCCCC=O)cc1` (stereo unspecified), the GI50 with ACHN was 31.3 µM (inactive); in the test with CAKI-1 it was > 100 µM (inactive); with HOP-62, > 100 µM (inactive); in the test with HT-29 it was 26.8 µM (inactive); in the test with Hs-578T, 44.3 µM (inactive); in the test with K562, 32.6 µM (inactive). The GI50 was 51.3 µM (inactive) in the test with M14; > 100 µM (inactive) in the test with OVCAR-3; > 100 µM (inactive) with OVCAR-4; > 100 µM (inactive) in the test on OVCAR-5; > 100 µM (inactive) in the test with OVCAR-8; > 100 µM (inactive) in the test on SF-268. The GI50 with SF-295 was > 100 µM (inactive); in the test with SN12C, > 100 µM (inactive); in the test with SNB-75 it was > 100 µM (inactive); in the test on UACC-257, > 100 µM (inactive); in the test with UO-31, 85.5 µM (inactive).
As for `CN(C)C(=S)/N=c1\ss/c(=N\C(=S)N(C)C)n1C1CCCCC1`, the GI50 with ACHN is > 100 µM (inactive); with CAKI-1 it was > 100 µM (inactive); with HOP-62, > 100 µM (inactive); in the test with HT-29, 0.458 µM (active); in the test with K562 it was 28.1 µM (inactive); in the test with M14, > 100 µM (inactive). In addition, the GI50 was > 100 µM (inactive) with OVCAR-3; 15.5 µM (inactive) with OVCAR-4; > 100 µM (inactive) with OVCAR-5; 84.3 µM (inactive) in the test on OVCAR-8; 44.9 µM (inactive) in the test with SF-268; > 100 µM (inactive) in the test with SF-295. Further, the GI50 in the test with SF-539 is > 100 µM (inactive); in the test on SN12C, > 100 µM (inactive); with SNB-75 it was 76.4 µM (inactive); with UACC-257, > 100 µM (inactive); with UO-31 it was > 100 µM (inactive).
For `O=C(Cc1ccc(Cl)c(Cl)c1)NCC1(N2CCCCC2)CCCCC1`, the GI50 is > 100 µM (inactive) in the test with ACHN; > 100 µM (inactive) in the test on CAKI-1; > 100 µM (inactive) in the test on HOP-62; 26.1 µM (inactive) in the test with HT-29; 52.2 µM (inactive) in the test on Hs-578T; 50.1 µM (inactive) in the test with K562. Moreover, the GI50 in the test on M14 is 18.3 µM (inactive); in the test on MCF7, 43.6 µM (inactive); in the test on OVCAR-3, 86.5 µM (inactive); in the test on OVCAR-4, 64 µM (inactive); in the test on OVCAR-5, 47.1 µM (inactive); with OVCAR-8 it was 97.3 µM (inactive). Moreover, the GI50 was 85.3 µM (inactive) in the test with SF-268; 37.3 µM (inactive) in the test on SF-295; 66.8 µM (inactive) in the test with SN12C; 17.8 µM (inactive) in the test with UACC-257; 27.1 µM (inactive) in the test with UO-31.
Regarding `COC1CC(C)C(OC)c2cc(O)cc(c2O)NC(=O)/C(C)=C/C=C\C(C)C(OC(N)=O)/C(C)=C\C(C)C1OC` (stereo unspecified), the GI50 with ACHN is 4.98 µM (inactive); with HOP-62 it was 0.579 µM (active); in the test with HT-29, 0.139 µM (active); in the test on M14 it was 1.02 µM (active); in the test on MCF7 it was 0.125 µM (active); in the test with OVCAR-4, 3.2 µM (inactive). The GI50 in the test with OVCAR-5 is 1.47 µM (inactive); with OVCAR-8 it was 7.28 µM (inactive); with SF-268 it was 2.19 µM (inactive); in the test on SF-295 it was 1.24 µM (inactive); in the test on SF-539, 0.417 µM (active); in the test on SN12C, 0.36 µM (active). For the same molecule, the GI50 with SNB-75 was 0.776 µM (active); with UACC-257, 0.397 µM (active); in the test on UO-31 it was 7.11 µM (inactive).
In the case of `O=S(=O)(O)c1cc(S(=O)(=O)O)c2c(/N=N/c3ccc(S(=O)(=O)O)c4ccccc34)c(O)ccc2c1`, the GI50 in the test on ACHN, in the test with CAKI-1, in the test on HOP-62, with HT-29, in the test on Hs-578T and in the test on K562 was > 100 µM (inactive) throughout. The GI50 in the test with M14, in the test with OVCAR-3, in the test on OVCAR-4, in the test with OVCAR-5, in the test on OVCAR-8 and with SF-268 was > 100 µM (inactive) in each case. The GI50 in the test on SF-295, in the test with SN12C, with SNB-75, with UACC-257 and with UO-31 was > 100 µM (inactive) throughout.
Take `C=C1C2CC(OC(C)=O)C3(C)C(c4ccoc4)OC(=O)[C@@H](O)[C@]13OC1C[C@H](OC(C)=O)C(C)(C)[C@H](CC(=O)OC)[C@]12C` (stereo partly specified): the GI50 in the test with ACHN was > 100 µM (inactive); in the test on HT-29 it was > 100 µM (inactive); in the test with K562 it was > 100 µM (inactive); in the test on M14, > 100 µM (inactive); in the test with OVCAR-3 it was > 100 µM (inactive); with OVCAR-4, 93.5 µM (inactive). For the same molecule, the GI50 was > 100 µM (inactive) in the test on OVCAR-8; > 100 µM (inactive) in the test on SF-295; > 100 µM (inactive) in the test with SF-539; > 100 µM (inactive) in the test on SN12C; 33.6 µM (inactive) in the test on SNB-75; > 100 µM (inactive) in the test on UO-31.
`COC[C@H]1OC(=O)c2coc3c2[C@@]1(C)C1=C(C3=O)[C@@H]2CCC(=O)[C@@]2(C)C[C@H]1OC(C)=O` [WORTMANNIN]: the GI50 was 13.6 µM (inactive) in the test with ACHN; 0.0108 µM (active) in the test on CAKI-1; 3.05 µM (inactive) in the test on HOP-62; 1.97 µM (inactive) in the test on HT-29; 37.2 µM (inactive) with K562; 2.15 µM (inactive) with M14. Also, the GI50 with MCF7 is 5.66 µM (inactive); in the test on OVCAR-3, 4.65 µM (inactive); with OVCAR-5, 15 µM (inactive); in the test with OVCAR-8, 25 µM (inactive); in the test on SF-268, 21.4 µM (inactive); in the test with SF-295, 2.96 µM (inactive). Also, the GI50 in the test on SF-539 was 2.82 µM (inactive); in the test on SN12C, 7.14 µM (inactive); in the test with SNB-75, 0.323 µM (active); in the test with UACC-257 it was 2.95 µM (inactive); in the test on UO-31, 0.665 µM (active).
